# Laboratory results as given in patent US10681909B2, “Herbicidal triazoles” (FMC Corporation, priority 2014, dated 2020).
# Assays:
# barnyardgrass [1] = assay: Test A preemergence; format: in vivo, Echinochloa crus-galli; details: 0 to 100 scale (0 no effect, 100 complete control)
# Summary of the method: (§1)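 Loam/sand soil mix; compound in non-phytotoxic solvent + surfactant. Pre: directed soil spray right after planting seed. Post: potted plants 2–10 cm, 1–2 leaf stage, sprayed with same formulation.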
# barnyardgrass [2] = assay: Test A postemergence; format: in vivo, Echinochloa crus-galli; details: 0 to 100 scale (0 no effect, 100 complete control), approx. 10 d
# Summary of the method: as §1
# foxtail, giant [3] = assay: Test A postemergence; format: in vivo, Setaria faberii; details: 0 to 100 scale (0 no effect, 100 complete control), approx. 10 d
# Summary of the method: as §1
# pigweed = assay: Test A postemergence; format: in vivo, Amaranthus retroflexus; details: 0 to 100 scale (0 no effect, 100 complete control), approx. 10 d
# Summary of the method: as §1
# wheat = assay: Test A postemergence; format: in vivo, Triticum aestivum; details: 0 to 100 scale (0 no effect, 100 complete control), approx. 10 d
# Summary of the method: as §1
# corn [4] = assay: Test A postemergence; format: in vivo, Zea mays; details: 0 to 100 scale (0 no effect, 100 complete control), approx. 10 d
# Summary of the method: as §1
# sedge, umbrella = assay: Test B flooded paddy test; format: in vivo, Cyperus difformis; details: 250 g ai/ha, applied to paddy water at 2-leaf stage, visual rating after 13 to 15 d, scale 0 (no effect) to 100 (complete control)
# Summary of the method: (§2)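 Pots were flooded to 3 cm above the soil at treatment, and compounds were applied directly into the paddy water. That depth was held throughout. After 13 to 15 d in a greenhouse, plants were rated visually against untreated controls.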
# ducksalad = assay: Test B flooded paddy test; format: in vivo, Heteranthera limosa; details: 250 g ai/ha, applied to paddy water at 2-leaf stage, visual rating after 13 to 15 d, scale 0 (no effect) to 100 (complete control)
# Summary of the method: as §2
# barnyardgrass [5] = assay: Test B flooded paddy test; format: in vivo, Echinochloa crus-galli; details: 250 g ai/ha, applied to paddy water at 2-leaf stage, visual rating after 13 to 15 d, scale 0 (no effect) to 100 (complete control)
# Summary of the method: as §2
# ryegrass, Italian = assay: Test C postemergence; format: in vivo, Lolium multiflorum
# Summary of the method: (§3)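 Pre: seeded into loam/sand, sprayed same time. Post: plants in peat moss–vermiculite mix with starter nutrients and dolomitic limestone, treated at 1- to 4-leaf stage (2 to 18 cm). Formulation: non-phytotoxic solvent blend plus surfactant.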
# corn [6] = assay: Test C postemergence; format: in vivo, Zea mays
# Summary of the method: as §3
# crabgrass, large = assay: Test C postemergence; format: in vivo, Digitaria sanguinalis
# Summary of the method: as §3
# foxtail, giant [7] = assay: Test C postemergence; format: in vivo, Setaria faberii
# Summary of the method: as §3
# morningglory = assay: Test C postemergence; format: in vivo, Ipomoea coccinea
# Summary of the method: as §3
# nutsedge, yellow = assay: Test C postemergence; format: in vivo, Cyperus esculentus
# Summary of the method: as §3
# ragweed = assay: Test C postemergence; format: in vivo, Ambrosia elatior
# Summary of the method: as §3
# barnyardgrass [8] = assay: Test C postemergence; format: in vivo, Echinochloa crus-galli
# Summary of the method: as §3
# oilseed rape = assay: Test C postemergence; format: in vivo, Brassica napus
# Summary of the method: as §3
# waterhemp = assay: Test C postemergence; format: in vivo, Amaranthus rudis
# Summary of the method: as §3
# velvetleaf = assay: Test C postemergence; format: in vivo, Abutilon theophrasti
# Summary of the method: as §3
# kochia = assay: Test C postemergence; format: in vivo, Kochia scoparia
# Summary of the method: as §3
smiles,measurement,setting,value
CCOc1nc(-c2ccccc2)nn1Cc1ccnc(C(F)(F)F)c1 [Compound 27],"Plant response rating, Barnyardgrass",barnyardgrass [1]; 125 g ai/ha,100
same,"Plant response rating, Barnyardgrass","barnyardgrass [1]; 500 g ai/ha, approx. 10 d",100
same,"Plant response rating, Barnyardgrass",barnyardgrass [2]; 125 g ai/ha,90
same,"Plant response rating, Barnyardgrass",barnyardgrass [2]; 500 g ai/ha,90
same,"Plant response rating, Foxtail, Giant","foxtail, giant [3]; 125 g ai/ha",90
same,"Plant response rating, Foxtail, Giant","foxtail, giant [3]; 500 g ai/ha",100
same,"Plant response rating, Pigweed",pigweed; 125 g ai/ha,100
same,"Plant response rating, Pigweed",pigweed; 500 g ai/ha,100
same,"Plant response rating, Wheat",wheat; 125 g ai/ha,20
same,"Plant response rating, Wheat",wheat; 500 g ai/ha,70
same,"Plant response rating, Corn",corn [4]; 125 g ai/ha,60
same,"Plant response rating, Corn",corn [4]; 500 g ai/ha,70
same,"Plant response rating, Sedge, Umbrella, Flood","sedge, umbrella",95
same,"Plant response rating, Ducksalad, Flood",ducksalad,90
same,"Plant response rating, Barnyardgrass, Flood",barnyardgrass [5],50
same,Plant response rating (scale of 0 to 100 where 0 is no effect and 100 is complete control),"ryegrass, Italian; 31 g ai/ha",5
same,Plant response rating (scale of 0 to 100 where 0 is no effect and 100 is complete control),"ryegrass, Italian; 62 g ai/ha",20
same,Plant response rating (scale of 0 to 100 where 0 is no effect and 100 is complete control),"ryegrass, Italian; 125 g ai/ha",30
same,Plant response rating (scale of 0 to 100 where 0 is no effect and 100 is complete control),"ryegrass, Italian; 250 g ai/ha",35
same,Plant response rating (scale of 0 to 100 where 0 is no effect and 100 is complete control),corn [6]; 31 g ai/ha,10
same,Plant response rating (scale of 0 to 100 where 0 is no effect and 100 is complete control),corn [6]; 62 g ai/ha,15
same,Plant response rating (scale of 0 to 100 where 0 is no effect and 100 is complete control),corn [6]; 125 g ai/ha,10
same,Plant response rating (scale of 0 to 100 where 0 is no effect and 100 is complete control),corn [6]; 250 g ai/ha,25
same,Plant response rating (scale of 0 to 100 where 0 is no effect and 100 is complete control),"crabgrass, large; 31 g ai/ha",10
same,Plant response rating (scale of 0 to 100 where 0 is no effect and 100 is complete control),"crabgrass, large; 62 g ai/ha",20
same,Plant response rating (scale of 0 to 100 where 0 is no effect and 100 is complete control),"crabgrass, large; 125 g ai/ha",15
same,Plant response rating (scale of 0 to 100 where 0 is no effect and 100 is complete control),"crabgrass, large; 250 g ai/ha",45
same,Plant response rating (scale of 0 to 100 where 0 is no effect and 100 is complete control),"foxtail, giant [7]; 31 g ai/ha",5
same,Plant response rating (scale of 0 to 100 where 0 is no effect and 100 is complete control),"foxtail, giant [7]; 62 g ai/ha",10
same,Plant response rating (scale of 0 to 100 where 0 is no effect and 100 is complete control),"foxtail, giant [7]; 125 g ai/ha",10
same,Plant response rating (scale of 0 to 100 where 0 is no effect and 100 is complete control),"foxtail, giant [7]; 250 g ai/ha",15
same,Plant response rating (scale of 0 to 100 where 0 is no effect and 100 is complete control),morningglory; 31 g ai/ha,85
same,Plant response rating (scale of 0 to 100 where 0 is no effect and 100 is complete control),morningglory; 62 g ai/ha,80
same,Plant response rating (scale of 0 to 100 where 0 is no effect and 100 is complete control),morningglory; 125 g ai/ha,90
same,Plant response rating (scale of 0 to 100 where 0 is no effect and 100 is complete control),morningglory; 250 g ai/ha,85
same,Plant response rating (scale of 0 to 100 where 0 is no effect and 100 is complete control),"nutsedge, yellow; 31 g ai/ha",5
same,Plant response rating (scale of 0 to 100 where 0 is no effect and 100 is complete control),"nutsedge, yellow; 62 g ai/ha",5
same,Plant response rating (scale of 0 to 100 where 0 is no effect and 100 is complete control),"nutsedge, yellow; 125 g ai/ha",10
same,Plant response rating (scale of 0 to 100 where 0 is no effect and 100 is complete control),"nutsedge, yellow; 250 g ai/ha",10
same,Plant response rating (scale of 0 to 100 where 0 is no effect and 100 is complete control),ragweed; 31 g ai/ha,55
same,Plant response rating (scale of 0 to 100 where 0 is no effect and 100 is complete control),ragweed; 62 g ai/ha,60
same,Plant response rating (scale of 0 to 100 where 0 is no effect and 100 is complete control),ragweed; 125 g ai/ha,25
same,Plant response rating (scale of 0 to 100 where 0 is no effect and 100 is complete control),ragweed; 250 g ai/ha,70
same,Plant response rating (scale of 0 to 100 where 0 is no effect and 100 is complete control),barnyardgrass [8]; 31 g ai/ha,10
same,Plant response rating (scale of 0 to 100 where 0 is no effect and 100 is complete control),barnyardgrass [8]; 62 g ai/ha,15
same,Plant response rating (scale of 0 to 100 where 0 is no effect and 100 is complete control),barnyardgrass [8]; 125 g ai/ha,25
same,Plant response rating (scale of 0 to 100 where 0 is no effect and 100 is complete control),barnyardgrass [8]; 250 g ai/ha,55
same,Plant response rating (scale of 0 to 100 where 0 is no effect and 100 is complete control),"oilseed rape; Oilsee Rape, 250 g ai/ha",90
same,Plant response rating (scale of 0 to 100 where 0 is no effect and 100 is complete control),"oilseed rape; Oilseed Rape, 31 g ai/ha",90
same,Plant response rating (scale of 0 to 100 where 0 is no effect and 100 is complete control),"oilseed rape; Oilseed Rape, 62 g ai/ha",90
same,Plant response rating (scale of 0 to 100 where 0 is no effect and 100 is complete control),"oilseed rape; Oilseed Rape, 125 g ai/ha",90
same,Plant response rating (scale of 0 to 100 where 0 is no effect and 100 is complete control),waterhemp; 31 g ai/ha,90
same,Plant response rating (scale of 0 to 100 where 0 is no effect and 100 is complete control),waterhemp; 62 g ai/ha,95
same,Plant response rating (scale of 0 to 100 where 0 is no effect and 100 is complete control),waterhemp; 125 g ai/ha,95
same,Plant response rating (scale of 0 to 100 where 0 is no effect and 100 is complete control),waterhemp; 250 g ai/ha,98
same,Plant response rating (scale of 0 to 100 where 0 is no effect and 100 is complete control),velvetleaf; 31 g ai/ha,45
same,Plant response rating (scale of 0 to 100 where 0 is no effect and 100 is complete control),velvetleaf; 62 g ai/ha,50
same,Plant response rating (scale of 0 to 100 where 0 is no effect and 100 is complete control),velvetleaf; 125 g ai/ha,60
same,Plant response rating (scale of 0 to 100 where 0 is no effect and 100 is complete control),velvetleaf; 250 g ai/ha,70
same,Plant response rating (scale of 0 to 100 where 0 is no effect and 100 is complete control),kochia; 31 g ai/ha,95
same,Plant response rating (scale of 0 to 100 where 0 is no effect and 100 is complete control),kochia; 62 g ai/ha,95
same,Plant response rating (scale of 0 to 100 where 0 is no effect and 100 is complete control),kochia; 125 g ai/ha,95
same,Plant response rating (scale of 0 to 100 where 0 is no effect and 100 is complete control),kochia; 250 g ai/ha,95
